Experimental data as given in patent publication US10105384B2, “Nucleic acids targeting TCTP for use in the treatment of chemo- or hormone-resistant cancers” (INSTITUT NATIONAL DE LA SANTE ET DE LA RECHERCHE MEDICALE …, priority 2010, dated 2018).
Peptide text beside a SMILES is read from it. * marks the point of attachment. Cbz = O=C(OCc1ccccc1)*

What was measured:
Format in all cases: cell-based, human
[1] = test system: TCTP; assay: ASO sequences screening: TCTP expression by western blot and/or qRT-PCR; settings: WB and/or qRT-PCR, PC-3 cells overexpressing TCTP
Protocol: (§1) Western Blot analysis was performed as described previously (Rocchi et al., 2004, Cancer Res. 64:6595-602) with 1:5000 rabbit anti-Hsp27 polyclonal antibody (Assay Designs, Villeurbanne, France), 1:2000 rabbit TCTP polyclonal antibody (Abcam Inc., Cambridge, UK), 1:250 rabbit anti-MSL1v1 polyclonal antibody (Abcam Inc.), 1:500 mouse anti-ubiquitin monoclonal antibody (Santa Cruz Biotechnology Inc., Heidelberg, Germany) or 1:1000 rabbit anti-caspase-3 polyclonal antibody (Cell Signalling Technology Inc., Danvers, USA). Loading levels were normalized using 1:5000 rabbit anti-glyceraldehyde-3-phosphate dehydrogenase polyclonal (Abcam Inc.) or 1:2500 mouse anti-vinculine monoclonal antibodies (Sigma Chemical Co., St Louis, Mo., USA).
The quantitative reverse transcription polymerase chain reaction (qRT-PCR) analysis was done on a LightCycler detection system (Roche Applied Science, Meylan, France). Expression levels of 18S subunit of the ribosome gene were used as an internal control. First strand cDNA was synthesized from 1 μg of total RNA using random hexamers and expanded by reverse transcriptase according to the manufacturer's instructions (ImProm-II Reverse Transcription System, Promega, Charbonniéres-les-Bains, France), subsequently diluted 1:10 with water, and stored at −20° C. until use. TCTP and 18S polymerase chain reaction (PCR) products were detected by quantitative real time PCR (qRT-PCR) using the SYBR Premix Ex Taq (Takara Bio Inc, St Germain en Laye, France) following the manufacturer's instructions. Five microliters of diluted cDNA template were mixed with 10 μl SYBR Premix Ex Taq (including Taq polymerase, reaction buffer, MgCl2, SYBR green I dye, and deoxynucleotide triphosphate mix) and 0.4 μM forward and reverse primers, in a final volume of 20 μl. The following primers were used: TCTP forward 5′-[…]-3′ (SEQ ID NO: 8) and TCTP reverse 5′-[…]-3′; (SEQ ID NO: 9); 18S forward 5′-[…]-3′ (SEQ ID NO: 10) and 18S reverse 5′-[…]-3′ (SEQ ID NO: 11). After an initial Taq activation for 10 seconds at 95° C., Light Cycler PCR was done using 55 cycles with the following cycling conditions: 95° C. for 5 seconds, 58° C. for 7 seconds, and 72° C. for 14 seconds. Each sample was analyzed in duplicate and the experiment was repeated three times. Results were analyzed using RealQuant data analysis software (Roche, Neuilly-sur-seine, France). The results analysis was done with the 2(-Delta Delta C(T)) Method (Livak K J. et al., 2001; Methods. 25:402-8).
In order to find a sequence ASO having an inhibiting effect on TCTP expression, 30 ASO sequences have been designed 26 of which are shown in table 1. Said 30 sequences cover the TCTP mRNA (accession number NM_003295). Using BLAST program, the specificity of said sequences has been studied. Among said 30 sequences, only 15 sequences have been identified as being specific for TCPT mRNA sequence (see table 1). The effect of said ASO sequences on TCTP expression was tested by western blot analysis (WB) and/or by quantitative reverse transcription polymerase chain reaction (qRT-PCR) on PC-3 cells overexpressing TCTP. WB and qRT-PCR were performed as exposed in example 1.

[2] = test system: PC-3 cells; assay: MTT cell growth assay, PC-3 cells; settings: PC-3 cells, 50 nM docetaxel 24 h, MTT
Protocol: In brief, cells were seeded in each well of 12-well microtiter plates (30 000 to 50 000 cells per well) and allowed to attach overnight. To study the effect of TCTP downregulation on apoptosis induced by docetaxel, PC-3 cells were transiently transfected the day after seeding with 5 nM of TCTP siRNA for 48 h or 100 nM of TCTP ASO for 72 h. Cells were then treated with 50 nM of docetaxel and MTT assays were performed after 24 h. To assess the effect of TCTP downregulation on Hsp27 cytoprotection, LNCaP-Mock and -Hsp27 cells were transiently transfected the day after seeding with 5 nM of TCTP siRNA for 48 h. The down- or upregulation of TCTP effect on LNCaP and C4-2 cell viability was realized after transient transfections with 100 nM of TCTP ASO or 0.02 μg/μl of pDEST-TCTP for 72 h and 48 h respectively. Cells were then treated with 1 nM of docetaxel in serum-free media (mimics androgen withdrawal in vitro) and crystal violet assays were performed the day after. Each assay was performed in triplicate.
To assess the effect of TCTP down-regulation on CR cell growth, PC-3 cells were treated for 1 day with 5 nM TCTP siRNA or for 2 days with 100 nM TCTP ASO. At the end of the treatment, PC-3 cells were incubated with 50 nM of docetaxel. Growth rates of PC-3 cells were examined using the 3-(4,5-dimethylthiazol-2-yl)-2,5-diphenyltetrazolium bromide assay. […] The effect of the inhibition of TCTP on cell survival was analyzed in PC-3 after combined ASO and docetaxel-chemotherapy treatment. After 24 h of treatment with 50 nM of docetaxel, cell viability was determined using a MTT assay. The experiment was repeated in triplicate. *** differs from PC-3 transfected with control-siRNA (P50.001) using Statview software. […] The same effect has been observed with TCTP siRNA (SEQ ID NO: 3) and 5′-[…]-3′ (SEQ ID NO: 14) and 5′-[…]-3′ (SEQ ID NO: 15) ASOs.
PC3 cells were transfected with a TCTP siRNA of SEQ ID NO: 3. Cell proliferation and apoptosis were studied using respectively MTT (3-(4,5-dimethylthiazol-2-yl)-2,5-diphenyl tetrazolium bromure) assay and flow cytometry.
PC3 cells were transfected with a TCTP ASO of SEQ ID NO: 2. Cell proliferation and apoptosis were studied using respectively MTT assay and flow cytometry.

[3] = test system: TCTP; assay: TCTP level in LNCaP cells after Hsp27 down-regulation by OGX-427 (western blot, mRNA)
Protocol: as §1
2′-O-(2-rnethoxyethyl) ASO, OGX-427, was obtained from OncoGenex. The sequence of OGX-427 corresponds to the human Hsp27 translation initiation site (5′-GGGACGCGG-CGCTCGGTCAT-3′) (SEQ ID NO: 12). A mismatch ASO (ASO; 5′-[…]-3′) (SEQ ID NO: 13) was used as a control. The TCTP phosphorithioate ASO targeting the human TCTP (5′-[…]-3′) (SEQ ID NO: 2) and the control oligonucleotide (5′-CGTGTAGGTACGGCAGATC-3′) (SEQ ID NO: 4) were purchased from Operon (Eurofin MWG, Courtaboeuf, France) and designated ASO TCTP or ASO scrambled. […]

[4] = test system: TCTP; assay: TCTP half-life / proteasomal degradation in PC-3 cells (western blot); settings: for TCTP protein levels decrease: PC-3 cells, cycloheximide alone 20 μg/ml
Protocol: Cells were plated at a density of 25,000 (PC-3) and 75 000 (LNCaP and C4-2) by 1.9 cm^2 and treated the day after with indicated siRNA or ASO for 1 or 2 days respectively. Oligofectamine, a cationic lipid (Invitrogen), was used to increase siRNA or ASO uptake into the cells. Cells were treated with indicated siRNA or ASO concentrations after a preincubation for 20 min with […] of oligofectamine in serum free OPTI-MEM (Invitrogen). Four hours later, 1 ml of FCS was added in the medium. […]
To determine whether the ubiquitination of TCTP results in its proteasomal degradation, TCTP half-life was determined after OGX-427 treatment, in the presence or absence of the proteasome inhibitor MG132 and protein synthesis inhibitor cycloheximide after 2 days.

| Compound | ability to inhibit TCTP expression [1] | best ability to inhibit specifically TCTP expression [1] | enhancement of docetaxel sensitivity [2] | also measured |
| --- | --- | --- | --- | --- |
| 5′-AACTTGTTTCCTGCAGGTGA-3′ (all phosphorothioate, sugars by position and methylation of C not given here) [ASO15] | strong ability to inhibit TCTP expression | best ability to inhibit specifically TCTP expression | same effect |  |
| 5′-GGGACGCGG-CGCTCGGTCAT-3′ (antisense GGGACGCGGCGCTCGGTCAT; 2'-O-(2-methoxyethyl) modified ASO, pattern not given here) [OGX-427, 2′-O-(2-methoxyethyl) ASO from OncoGenex corresponding to the human Hsp27 translation initiation site] |  |  |  | TCTP mRNA expression level ([3]; LNCaP cells treated by OGX-427): without any change; TCTP protein level lower than OGX-427-control ([3]; LNCaP cells, western blot): 70% |
| 5′-TGGTTCATGACAATATCGAC-3′ (all phosphorothioate, sugars by position and methylation of C not given here) [ASO14] | strong ability to inhibit TCTP expression | best ability to inhibit specifically TCTP expression | same effect |  |
| CC(C)C[C@@H](C=O)NC(=O)[C@H](CC(C)C)NC(=O)[C@H](CC(C)C)NC(=O)OCc1ccccc1 [MG132] (Cbz-Leu-Leu-Leu-aldehyde) |  |  |  | TCTP half-life ([4]; PC-3 cells after OGX-427 treatment, MG132 10 μmol/L): prolonged the half-life of TCTP |
| C[C@@H]1C[C@@H]([C@H](O)CC2CC(=O)NC(=O)C2)C(=O)[C@@H](C)C1 [cycloheximide] |  |  |  | TCTP protein levels decrease ([4]; 24 h): 40%; TCTP protein levels decrease ([4]; 48 h): 60% |
